Data on 39 compounds can be found in ChEMBL document CHEMBL3612053, “Discovery and SAR study of 3-(tert-butyl)-4-hydroxyphenyl benzoate and benzamide derivatives as novel farnesoid X receptor (FXR) antagonists” (Bioorg Med Chem, 2015).

Data set [1] addresses T1, Bile acid receptor (Homo sapiens, UniProt Q96RI1).
T1 sequence (Q96RI1 whole entry): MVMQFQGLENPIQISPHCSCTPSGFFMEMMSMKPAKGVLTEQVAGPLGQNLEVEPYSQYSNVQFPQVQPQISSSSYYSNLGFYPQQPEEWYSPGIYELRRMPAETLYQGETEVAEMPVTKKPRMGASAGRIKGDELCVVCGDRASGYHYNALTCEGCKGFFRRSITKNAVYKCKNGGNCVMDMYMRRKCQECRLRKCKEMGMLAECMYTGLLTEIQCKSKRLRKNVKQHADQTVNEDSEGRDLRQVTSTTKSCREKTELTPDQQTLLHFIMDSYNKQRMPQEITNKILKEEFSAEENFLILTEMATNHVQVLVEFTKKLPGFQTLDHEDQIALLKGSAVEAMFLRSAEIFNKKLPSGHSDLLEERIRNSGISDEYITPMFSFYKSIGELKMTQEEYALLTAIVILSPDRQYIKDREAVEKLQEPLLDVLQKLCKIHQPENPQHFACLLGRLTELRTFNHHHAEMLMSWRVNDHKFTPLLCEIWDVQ
The data set is described as follows: Antagonist activity at GST-tagged FXR LBD (unknown origin) assessed as inhibition of CDCA-induced Bio-SRC-1 recruitment after 30 mins by HTRF assay.

Data set [2] can be described thus: Half life in serum (unknown origin). Type of data set: ADME, cell-free.
Data set [3] has as its target T2, Bile acid receptor (Homo sapiens) (UniProt Q96RI1).
T2 sequence (whole entry): T1 sequence (Q96RI1 whole entry)
The data set can be described thus: Potency index, ratio of guggulsterone IC50 to compound IC50 for GST-tagged FXR LBD (unknown origin).

Take `CNc1cc(Cl)c(C(=O)Nc2ccc(O)c(C(C)(C)C)c2)c(Cl)c1`: the IC50 in data set [1] was 13.9 µM. In data set [2], this compound had a half-life of more than 1 h.

As for `CN(C)c1cc(Cl)c(C(=O)N(C)c2ccc(O)c(C(C)(C)C)c2)c(Cl)c1`, the IC50 in data set [1] amounted to 3.9 µM. For the same compound, in data set [2], the half-life was more than 1 h.

As to `CN(C)c1cc(Cl)c(C(=O)N(CC2CCCCC2)c2ccc(O)c(C(C)(C)C)c2)c(Cl)c1`, the half-maximal inhibitory concentration (IC50) in data set [1] was more than 100 µM. The same compound had a half-life in data set [2] of more than 1 h.

`CN(C)c1cc(Cl)c(C(=O)Nc2ccc(O)c(C(C)(C)C)c2)c(Cl)c1`: the 50% inhibitory concentration (IC50) in data set [1] stood at 1.4 µM. Moreover, the half-life in data set [2] was more than 1 h.

Consider `CC(C)(C)c1cc(NC(=O)c2c(Cl)cc(NC3CCCC3)cc2Cl)ccc1O`, for which, in data set [1], the IC50 stood at 5 µM. Also, the half-life in data set [2] is more than 1 h.

As to `CC(C)(C)c1cc(OC(=O)c2ccc(Cl)cc2)ccc1O`, the concentration for half-maximal inhibition (IC50) in data set [1] is more than 100 µM. The compound further showed a half-life in data set [2] of less than 0.25 h.

On to `CN(C)c1cc(Cl)c(C(=O)N(c2ccc(O)c(C(C)(C)C)c2)C2CCCCC2)c(Cl)c1`, for which the IC50 in data set [1] was more than 100 µM. Moreover, the half-life in data set [2] is more than 1 h.

With `CC(C)(C)c1cc(OC(=O)c2ccco2)ccc1O`, the IC50 in data set [1] is more than 100 µM. In addition, the half-life in data set [2] is less than 0.25 h.

With `CC(C)(C)c1cc(OC(=O)c2ccc(Cl)cc2Cl)ccc1O`, the IC50 in data set [1] was determined as 10.2 µM. This compound returned a half-life in data set [2] of 0.167 h.

With `CCc1cc(NC(=O)c2ccc(Cl)cc2Cl)ccc1O`, the half-maximal inhibitory concentration (IC50) in data set [1] was more than 100 µM. This compound also had a half-life in data set [2] of more than 1 h.

Regarding `CC(C)(C)c1cc(OC(=O)c2ccc([N+](=O)[O-])cc2)ccc1O`, the concentration for half-maximal inhibition (IC50) in data set [1] worked out at 12.7 µM. The same compound came in with a half-life in data set [2] of less than 0.25 h.

In the case of `CC(C)(C)c1cc(NC(=O)c2c(Cl)cc(N3CCCCC3)cc2Cl)ccc1O`, the IC50 in data set [1] was more than 100 µM. In addition, in data set [2], the half-life is more than 1 h.

For `Cc1ccccc1C(=O)Oc1ccc(O)c(C(C)(C)C)c1`, the IC50 in data set [1] is more than 100 µM. In data set [2], this compound registered a half-life of less than 0.25 h.

Regarding `Cc1cc(NC(=O)c2ccc(Cl)cc2Cl)ccc1O`, in data set [1], the IC50 is more than 100 µM. Besides, in data set [2], the half-life was more than 1 h.

Take `CC(C)(C)c1cc(OC(=O)c2ccc([N+](=O)[O-])cc2Cl)ccc1O`: in data set [1], the 50% inhibitory concentration (IC50) was determined as 8.8 µM. Further, the half-life in data set [2] was less than 0.25 h.

As to `CC(C)(C)c1cc(OC(=O)c2ccc(N)cc2)ccc1O`, in data set [1], the IC50 came out at 34.2 µM. Also, the half-life in data set [2] is less than 0.25 h.

Take `C=CCOc1ccc(NC(=O)c2ccc(Cl)cc2Cl)cc1C(C)(C)C`: in data set [1], the IC50 is more than 100 µM. The same compound came in with a half-life in data set [2] of more than 1 h.

In the case of `CN(C)c1cc(Cl)c(C(=O)N(Cc2cccnc2)c2ccc(O)c(C(C)(C)C)c2)c(Cl)c1`, the IC50 in data set [1] worked out at 6.3 µM. Besides, the half-life in data set [2] is more than 1 h.

On to `CC(C)c1cc(NC(=O)c2ccc(Cl)cc2Cl)ccc1O`, for which the 50% inhibitory concentration (IC50) in data set [1] was more than 100 µM. Further, the half-life in data set [2] is more than 1 h.

As for `CC(C)(C)c1cc(OC(=O)/C=C/c2ccccc2)ccc1O`, the IC50 in data set [1] is more than 100 µM. The half-life in data set [2] is less than 0.25 h.

For the compound `CC(C)(C)c1cc(OC(=O)c2c(Cl)cc(N)cc2Cl)ccc1O`, the concentration for half-maximal inhibition (IC50) in data set [1] came out at 0.6 µM. For the same compound, in data set [3], the Ratio IC50 is 100. This compound came in with a half-life in data set [2] of less than 0.25 h.

In the case of `CC(C)(C)c1cc(NC(=O)c2c(Cl)cc(NCc3cccs3)cc2Cl)ccc1O`, in data set [1], the IC50 amounted to 8.6 µM. For the same compound, in data set [2], the half-life is more than 1 h.

As for `Cc1ccc(C(=O)Oc2ccc(O)c(C(C)(C)C)c2)cc1`, in data set [1], the half-inhibitory concentration (IC50) is more than 100 µM. In data set [2], this compound showed a half-life of less than 0.25 h.

For `CC(C)(C)c1cc(NC(=O)c2c(Cl)cc(N3CCNCC3)cc2Cl)ccc1O`, in data set [1], the IC50 is more than 100 µM. Further, the half-life in data set [2] was more than 1 h.

In the case of `CC(C)(C)c1cc(NC(=O)c2c(Cl)cc(NC3CCCCC3)cc2Cl)ccc1O`, the concentration for half-maximal inhibition (IC50) in data set [1] worked out at 2.5 µM. In data set [2], this compound gave a half-life of more than 1 h.

Take `COc1ccccc1C(=O)Oc1ccc(O)c(C(C)(C)C)c1`: the half-maximal inhibitory concentration (IC50) in data set [1] was more than 100 µM. Moreover, in data set [2], the half-life is less than 0.25 h.

For the compound `CC(C)(C)c1cc(OC(=O)Cc2ccccc2)ccc1O`, in data set [1], the IC50 was more than 100 µM. Besides, the half-life in data set [2] is less than 0.25 h.

Turning to `CC(C)(C)c1cc(OC(=O)c2ccc(N)cc2Cl)ccc1O`, in data set [1], the concentration for half-maximal inhibition (IC50) stood at 7.2 µM. Also, the half-life in data set [2] is less than 0.25 h.

Regarding `CC(C)(C)c1cc(NC(=O)c2ccc(Cl)cc2Cl)ccc1O`, the IC50 in data set [1] stood at 13.6 µM. The compound also came in with a half-life in data set [2] of more than 1 h.

For `CC(C)(C)c1cc(NC(=O)c2c(Cl)cc(NCc3ccncc3)cc2Cl)ccc1O`, the half-maximal inhibitory concentration (IC50) in data set [1] amounted to 9.8 µM. This compound came in with a half-life in data set [2] of more than 1 h.

With `CC(=O)Oc1ccc(NC(=O)c2ccc(Cl)cc2Cl)cc1C(C)(C)C`, in data set [1], the IC50 is 15.5 µM. The half-life in data set [2] was more than 1 h.

Regarding `CCNc1cc(Cl)c(C(=O)Nc2ccc(O)c(C(C)(C)C)c2)c(Cl)c1`, the half-maximal inhibitory concentration (IC50) in data set [1] was 28.7 µM. The half-life in data set [2] is more than 1 h.

Consider `CC(C)(C)c1cc(NC(=O)c2ccc(Cl)cc2Cl)cc(C(C)(C)C)c1O`, for which the IC50 in data set [1] is more than 100 µM. In addition, in data set [2], the half-life was more than 1 h.

Regarding `CC(C)(C)c1cc(OC(=O)c2c(Cl)cc([N+](=O)[O-])cc2Cl)ccc1O`, the concentration for half-maximal inhibition (IC50) in data set [1] worked out at 5.9 µM. In data set [2], this compound displayed a half-life of less than 0.25 h.

Consider `CN(c1cc(Cl)c(C(=O)Nc2ccc(O)c(C(C)(C)C)c2)c(Cl)c1)C1CCCCC1`, for which the IC50 in data set [1] was more than 100 µM. For the same compound, the half-life in data set [2] was more than 1 h.

Consider `CC(C)(C)c1cc(NC(=O)c2c(Cl)cc(NCc3cccnc3)cc2Cl)ccc1O`, for which the half-maximal inhibitory concentration (IC50) in data set [1] stood at 3.6 µM. The same compound gave a half-life in data set [2] of more than 1 h.

Regarding `CC(C)(C)c1cc(NC(=O)c2c(Cl)cc(N)cc2Cl)ccc1O`, in data set [1], the IC50 stood at 5.2 µM. The half-life in data set [2] is more than 1 h.

On to `COc1ccc(NC(=O)c2ccc(Cl)cc2Cl)cc1C(C)(C)C`, for which, in data set [1], the IC50 is more than 100 µM. In data set [2], the half-life is more than 1 h.

On to `CC(C)(C)c1cc(OC(=O)c2ccccc2)ccc1O`, for which, in data set [1], the IC50 is more than 100 µM. Moreover, the half-life in data set [2] is less than 0.25 h.
